From article PMC5447021, “TNF Lectin-Like Domain Restores Epithelial Sodium Channel Function in Frameshift Mutants Associated with Pseudohypoaldosteronism Type 1B” (Frontiers in Immunology, 2017)

Tests used:
[1] = system: αE272fs (co-expressed with βγ-ENaC); assay: Whole-cell patch clamp, αE272fs + WT βγ; format: cell-based, human; details: read-out: EC50, solnatide, HEK-293, whole-cell, -100 mV, n = 5, p < 0.001 vs WT
Experimental: (§1) Point mutations of α-, β-, γ- and δ-hENaC and PHA1B frameshift mutations of α-hENaC were prepared with the QuikChange Lightning Site-Directed Mutagenesis Kit (Agilent Technologies, CA, USA). Mutagenic primers were designed individually with the Primer Design Program provided on the producer’s website or for the frameshift mutations the same base changes as reported in patients (see Table 2) were performed. Primers were ordered from Sigma-Aldrich, Vienna, Austria.
(§2) HEK-293 cells were transfected 1 day after cell seeding using X-tremeGENE HP DNA transfection reagent (Roche Diagnostics, Mannheim, Germany) according to the manufacturer’s protocol. A set of WT or mutant αβγ- or δβγ-hENaC, or α-, β-, γ-, or δ-hENaC alone was used, and the ratio of DNA to transfection reagent was 1:3. The expression was highest 48–72 h after transfection.
(§3) Electrophysiological experiments were performed as described in detail by Shabbir et al. ([16]). […] Currents were recorded with the patch clamp method in the whole-cell mode. The chamber contained 1 ml of the bath solution of the following composition (in mM): 145 NaCl, 2.7 KCl, 1.8 CaCl2, 2 MgCl2, 5.5 glucose, and 10 HEPES, adjusted to pH 7.4 with 1 M NaOH solution. Micropipettes were pulled from thin-walled borosilicate glass capillaries (Harvard Apparatus, Holliston, MA, USA) with a DMZ Zeitz Puller to obtain electrode resistances ranging from 2 to 5 MΩ. […]

δ-hENaC = target: T1, δ-hENaC (Homo sapiens, UniProt P51172); design: method as in PMID 24077967; details: δ-hENaC alone, control current 60.6 ± 2.5 pA, mean ± S.E.; cited from earlier work
T1 construct: expressed in transfected cells; host or cells: HEK-293
T1 sequence (P51172 1-638 isoform P51172-1): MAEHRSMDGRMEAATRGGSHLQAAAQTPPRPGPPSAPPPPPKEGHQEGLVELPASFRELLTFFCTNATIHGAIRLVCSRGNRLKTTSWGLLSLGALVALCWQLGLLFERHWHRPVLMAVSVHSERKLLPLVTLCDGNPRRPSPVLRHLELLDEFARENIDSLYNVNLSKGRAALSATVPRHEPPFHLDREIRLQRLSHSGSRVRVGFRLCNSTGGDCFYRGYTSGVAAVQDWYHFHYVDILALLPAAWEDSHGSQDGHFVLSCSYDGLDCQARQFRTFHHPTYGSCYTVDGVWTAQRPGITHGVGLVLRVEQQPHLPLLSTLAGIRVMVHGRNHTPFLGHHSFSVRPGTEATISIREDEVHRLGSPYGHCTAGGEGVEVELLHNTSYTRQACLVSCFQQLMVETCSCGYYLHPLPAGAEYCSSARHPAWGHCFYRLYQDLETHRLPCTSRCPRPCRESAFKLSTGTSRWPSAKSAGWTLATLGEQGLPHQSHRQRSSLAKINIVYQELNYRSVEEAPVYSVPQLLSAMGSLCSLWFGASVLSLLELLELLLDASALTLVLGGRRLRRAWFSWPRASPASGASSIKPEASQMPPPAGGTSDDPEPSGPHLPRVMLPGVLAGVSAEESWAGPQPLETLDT

[2] = system: αY447fs (co-expressed with βγ-ENaC); assay: Whole-cell patch clamp, αY447fs + WT βγ; format: cell-based, human; details: read-out: EC50, solnatide, HEK-293, whole-cell, -100 mV, n = 7
Experimental: as §1, §2, §3

C[C@@H]1NC(=O)CNC(=O)[C@H](CCC(=O)O)NC(=O)[C@@H]2CCCN2C(=O)[C@H]([C@@H](C)O)NC(=O)[C@H](CCC(=O)O)NC(=O)[C@H](CCCNC(=N)N)NC(=O)[C@H](CCC(N)=O)NC(=O)CNC(=O)[C@@H](N)CSSC[C@@H](C(=O)O)NC(=O)[C@H](Cc2ccc(O)cc2)NC(=O)[C@H](Cc2c[nH]c3ccccc23)NC(=O)[C@@H]2CCCN2C(=O)[C@H](CCCCN)NC(=O)[C@H](C)NC(=O)[C@H](CCC(=O)O)NC1=O [solnatide, L-cysteine, L-cysteinylglycyl-L-glutaminyl-L-arginyl-L-α-glutamyl-L-threonyl-L-prolyl-L-α-glutamylglycyl-L-alanyl-L-α-glutamyl-L-alanyl-L-lysyl-L-prolyl-L-tryptophyl-L-tyrosyl-, cyclic (1→17)-disulfide]
EC50 [1]: 75.6 ± 5.4 nM | Maximal induced current, solnatide (δ-hENaC): 15.6 ± 7.9 pA | EC50 [2]: 57.2 ± 4.8 nM
